Laboratory results: patent US6080733A, “Thioureido-cyclodextrins, utilized in particular to solubilize anti-tumor, and antiparasitic agents and their preparation processes” (Centre National de la Recherche Scientifique, priority 1996, dated 2000)
Several values for one entry are separate records, joined by “and”; a condition that tells them apart may be missing. Identical values can stand only once.

How the values were obtained:
[1] = solubility in water of the thioureido-cyclodextrins; type: physicochemical
[2] = cited from earlier work

CNC(=S)NC[C@H]1O[C@@H]2O[C@H]3[C@H](O)[C@@H](O)[C@@H](O[C@H]4[C@H](O)[C@@H](O)[C@@H](O[C@H]5[C@H](O)[C@@H](O)[C@@H](O[C@H]6[C@H](O)[C@@H](O)[C@@H](O[C@H]7[C@H](O)[C@@H](O)[C@@H](O[C@H]8[C@H](O)[C@@H](O)[C@@H](O[C@H]1[C@H](O)[C@H]2O)O[C@@H]8CO)O[C@@H]7CO)O[C@@H]6CO)O[C@@H]5CO)O[C@@H]4CO)O[C@@H]3CO [compound n°1, 6^I -desoxy-6^I -(N'-methylthioureido) cyclomaltoheptaose]
solubility [1]: 775000 µg/mL and 640000 µM

CC(=O)O[C@@]12CO[C@@H]1C[C@H](O)[C@@]1(C)C(=O)[C@H](O)C3=C(C)[C@@H](OC(=O)[C@H](O)[C@@H](NC(=O)OC(C)(C)C)c4ccccc4)C[C@@](O)([C@@H](OC(=O)c4ccccc4)[C@H]21)C3(C)C [Taxotere]
solubility in water of Taxotere, raised by encapsulation ([2]; encapsulated in 6^I -S-α-maltosyl-6^I -thiocyclo-maltaheptaose (WO-A-95/19994)): 6.5 g/L
solubility in water of Taxotere ([2]; without cyclodextrin): 4 µg/mL

CO[C@H]1O[C@H](CNC(=S)NC[C@H]2O[C@@H]3O[C@H]4[C@H](O)[C@@H](O)[C@@H](O[C@H]5[C@H](O)[C@@H](O)[C@@H](O[C@H]6[C@H](O)[C@@H](O)[C@@H](O[C@H]7[C@H](O)[C@@H](O)[C@@H](O[C@H]8[C@H](O)[C@@H](O)[C@@H](O[C@H]9[C@H](O)[C@@H](O)[C@@H](O[C@H]2[C@H](O)[C@H]3O)O[C@@H]9CO)O[C@@H]8CO)O[C@@H]7CO)O[C@@H]6CO)O[C@@H]5CO)O[C@@H]4CO)[C@@H](OC(C)=O)[C@H](OC(C)=O)[C@H]1OC(C)=O [compound n°3]
solubility in water [1]: 558 g/l and 373 mM

CO[C@H]1O[C@H](CNC(=S)NC[C@H]2O[C@@H]3O[C@H]4[C@H](O)[C@@H](O)[C@@H](O[C@H]5[C@H](O)[C@@H](O)[C@@H](O[C@H]6[C@H](O)[C@@H](O)[C@@H](O[C@H]7[C@H](O)[C@@H](O)[C@@H](O[C@H]8[C@H](O)[C@@H](O)[C@@H](O[C@H]9[C@H](O)[C@@H](O)[C@@H](O[C@H]2[C@H](O)[C@H]3O)O[C@@H]9CO)O[C@@H]8CO)O[C@@H]7CO)O[C@@H]6CO)O[C@@H]5CO)O[C@@H]4CO)[C@@H](O)[C@H](O)[C@H]1O [compound n°2]
solubility [1]: 710000 µg/mL and 518000 µM
